In patent publication US20240033319A1, “PEPTIDES FOR PREVENTING OR TREATING HEART AND BLOOD VESSEL DISEASES” (RD NÉPHROLOGIE, priority 2020, published 2024):
No end group written: not given here.

Legend:
[1] = system: human aortic smooth muscle cells (hAoSMCs); experiment: Calcification of cultivated human aortic smooth muscle cells in calcifying medium (Ca2+ content); format: cell-based; conditions: for effect on calcium content / calcification of hAoSMCs: peptide fragment 100 nmol L^−1, 7 days
Description: Cell culture and calcification induction in human aortic smooth muscle cells: Human aortic smooth muscle cells (hAoSMCs) (Promocell, Heidelberg, Germany) were cultivated in smooth muscle cell medium (Promocell, Heidelberg, Germany). The hAoSMCs were seeded in 48 well plates (5×10^3 cells/well) at 80% confluence. Dulbecco's modified Eagle's medium (DMEM) containing 25 mmol L^−1 glucose supplemented with 2.5% fetal calf serum and 2.8 mmol L^−1 phosphate were used to induce calcification (calcifying medium, CM). The calcifying medium was supplemented with CBF (max. concentration 100 pmol L^−1) or CBF fragments (100 nmol L^−1). As reference medium, DMEM containing 25 mmol L^−1 glucose supplemented with 2.5% fetal calf serum and 0.9 mmol L^−1 phosphate were used (non-calcifying medium, NCM). The hAoSMCs were incubated for 7 days while the incubation medium was replaced after 48 h.
Measurement of calcium content: For determination of calcium content, cells or aortic rings were washed 3 times with PBS without calcium. Aortic rings were dried and weighed. Dried aortic rings and cells were decalcified with 0.1 M HCl for 24 h, and the calcium content in the supernatant was determined by the o-cresolphthalein complexone method (Clinical Chemistry Assay Kit/Calcium, County Antrim, UK) according to the manufacturer's protocol. Cell content was extracted in 0.1 M NaOH 0.1% sodium dodecyl sulfate (SDS), and protein content was measured by the bicinchoninic acid (BCA) protein assay method (Thermo Fisher Scientific, Germany). The calcium content was normalized to total protein for cells or dry weight for aortic rings.

[2] = system: VDN rats; experiment: VDN (vitamin D3 plus nicotine) rat model of elastocalcinosis: aortic calcium, von Kossa staining, pulse pressure; format: in vivo; conditions: for pulse pressure (Example 3 peptide comparison) / calcified surface of the aortas, Von Kossa staining (Example 3 peptide comparison) / calcium content of the aortas (Example 3 peptide comparison): VDN animals, versus control animals; for pulse pressure (Example 3 peptide comparison): FIG. 5a; for calcified surface of the aortas, Von Kossa staining (Example 3 peptide comparison): FIG. 5b; for calcium content of the aortas (Example 3 peptide comparison): FIG. 5c
Description: Ex vivo and calcification of rat aortic rings: The thoracic aorta of 8-13 weeks old male Wistar-rats were gently dissected and were cut in 3-4 mm segments. The endothelial layer of the aortic ring was manually damaged by scratching using a conventional pipette tip. The aortic rings were incubated with DMEM containing 25 mmol L^−1 glucose supplemented with 2.5% fetal calf serum and 2.8 mmol L^−1 phosphate to induce calcification. The calcification medium was supplemented with CBF (max. concentration 1 μmol L^−1) or CBF fragments (100 nmol L^−1). As reference medium, DMEM containing 25 mmol L^−1 glucose supplemented with 2.5% fetal calf serum and 0.9 mmol L^−1 phosphate were used (non-calcifying medium, NCM). The aortic rings were incubated for 7 days while the medium was replaced after 48 h. Effect of CBF in an animal model with enhanced arterial calcification: An animal model of elastocalcinosis with proven increased arterial calcification (Niederhoffer et al., “Aortic calcification produced by vitmin D3 plus nicotine”, J. Vasc. Res. 34, 386-98, 1997) was chosen to assay the effects of CBF in vivo. Animal experiments were approved by the regional ethics committee “Comité d'éthique pour I'expérimentation animale Languedoc Roussillon N°36”, with the agreement number APAFIS 2018072715539434#17270v4, and conformed to the Guide for the Care and Use of Laboratory Animals, NIH (National Academies Press US, 8th edition, 2011). Three groups of 6 weeks old Wistar rats (Charles River Laboratories, L'Arbresle, France) were given a regular rat chow (A04, Safe, Villemoisson-sur-Orge, France) and spring water (Mont Roucous®, France; calcium 60 μM) ad libitum for one week before experiments. Two groups received CBF (31 μg kg^−1 per day) or its vehicle (saline) infused through an osmotic pump (Alzet 2004, Charles River, France) implanted under the skin. CBF treatment was initiated 3 or 4 days before induction of elastocalcinosis (vitamin D3 plus nicotine, or VDN rats) with a single injection of vitamin D3 (300,000 IU kg^−1, i.m.) and two gavages of nicotine (25 mg kg^−1, 5 ml kg^−1) on the same day, as previously described ^47.
Untreated rats served as control rats (sham operation and saline administration). Four weeks later, rats were anaesthetized (ketamine-xylazine), and a catheter was inserted into the right carotid artery for blood pressure measurement. After 10-15 min of equilibration, systolic, diastolic, mean arterial, and pulse (systolic-diastolic) pressures were determined. The aorta was gently dissected, adventitial fat removed, and cut into segments (3-4 mm) for further analysis.
Histological calcification staining and immunofluorescence staining: Aortic rings were placed in 1 ml of 4% formaldehyde for 1 h to prepare for histological and immunohistochemical staining. The rings were dehydrated and embedded in paraffin and 5 μm slices were prepared by a microtome (Leica RM 2250, Wetzlar, Germany). The slices were placed on a glass slide, deparaffinized in xylene, and dehydrated in decreasingly concentrated sopropanol solutions before staining. Von Kossa staining was performed to visualize calcified areas of the aortic rings. The aortic ring slides were incubated with 5% silver nitrate in the presence of UV light at 405 nm for 1 h, washed three times with double-distilled water (ddH2O), incubated in the presence of 5% sodium thiosulfate in water for 1 min, and washed three times with ddH2O. Next, nuclear fast red (Merck; Darmstadt, Germany) was added to the slides for 5 min. The slides were then rinsed, dehydrated with ethanol, incubated for 5 min in xylol, and covered with Vitro-Clud (R. Langenbrinck; Emmendingen, Germany). For immunohistochemical analyses, sections were blocked with blocking solution (1% bovine serum albumin (BSA)) for 30 min at room temperature. […]

[3] = system: rat aortic rings; conditions: for effect on calcium content / calcification of rat aortic rings: peptide fragment 100 nmol L^−1, 7 days

Substance | effect on calcium content / calcification of hAoSMCs [1] | effect on calcium content / calcification of rat aortic rings ([3]; calcifying medium) | other results
CBF2: CBF fragment comprising the amino acids 11-19 (RDSSMKLSF; listed as Homo sapiens) | no significant effect | no significant effect | pulse pressure (Example 3 peptide comparison) [2]: no effect; calcified surface of the aortas, Von Kossa staining (Example 3 peptide comparison) [2]: no effect; calcium content of the aortas (Example 3 peptide comparison) [2]: no effect
EEDN (listed as Homo sapiens) [CBF 07-10] | inhibitory effect on vascular calcification | inhibitory effect on vascular calcification | –
EEED (listed as Homo sapiens) [CBF 06-09] | strongest inhibition | strongest inhibition | –
EEEDN (listed as Homo sapiens) [CBF 06-10] | significant reduction of calcification | significant reduction of calcification | –
EEEDN RDSSM (EEEDNRDSSM; listed as Homo sapiens) [CBF fragment 06-15] | no significant effect | no significant effect | –
EEEE (listed as Homo sapiens) [CBF 05-08] | strongest inhibition | strongest inhibition | –
EGQE (listed as Homo sapiens) [CBF 02-05] | inhibitory effect on vascular calcification | inhibitory effect on vascular calcification | –
GQEE (listed as Homo sapiens) [CBF 03-06] | inhibitory effect on vascular calcification | inhibitory effect on vascular calcification | –
LEGQ (listed as Homo sapiens) [CBF 01-04] | inhibitory effect on vascular calcification | inhibitory effect on vascular calcification | –
LEGQE (listed as Homo sapiens) [CBF 01-05] | significant reduction of calcification | significant reduction of calcification | –
LEGQE EEEDN (LEGQEEEEDN; listed as Homo sapiens) [CBF1] | significantly decreased the calcium content | significantly decreased the calcium content | calcified surface of the aortas, Von Kossa staining (Example 3 peptide comparison) [2]: even more pronounced decrease; calcium content of the aortas (Example 3 peptide comparison) [2]: even more pronounced decrease
LEGQEEEEDNRDSSMKLSF [CBF, LEGQE EEEDN RDSSM KLSF] | – | – | threshold concentration for decreasing calcification in hAoSMCs ([1]; hAoSMCs, 7 days, Ca2+ content): ~1 amol L^−1; Ca2+ content in vessels of treated VDN rats compared to untreated animals ([2]; 31 μg kg^−1 per day via osmotic pump for 4 weeks): significantly reduced; pulse pressure (Example 3 peptide comparison) [2]: significantly lower pulse pressure; calcified surface of the aortas, Von Kossa staining (Example 3 peptide comparison) [2]: decreased calcified surface; calcium content of the aortas (Example 3 peptide comparison) [2]: decrease in calcium content; reduction of pulse pressure ([2]; VDN rats, 31 μg kg^−1 per day for 4 weeks): 63%; decrease of calcified surface of aorta (von Kossa staining) ([2]; VDN rats, 31 μg kg^−1 per day via osmotic pump for 4 weeks): 70%; pulse pressure ([2]; VDN rats, chronic treatment 4 weeks, untreated VDN 81±6): 53±3; arterial pressure in VDN animals ([2]; chronic treatment in vivo, 4 weeks): significant decrease; EC50 [3]: ~100 pM; threshold concentration for reducing calcification of rat aortic rings ([3]; aortic rings ex vivo, calcifying medium, 7 days, Ca content): ~0.01 nmol/L; reduction in the calcified area of aortic rings (von Kossa staining) ([3]; calcifying medium, CBF 100 nM): 40%
QEEE (listed as Homo sapiens) [CBF 04-07] | strongest inhibition | strongest inhibition | –
